From patent US20150299120A1, “Spirohydantoin compounds and their use as selective androgen receptor modulators” (NOVARTIS AG, priority 2012, published 2015)

Columns and labels:
androgen receptor (AR) = target: T1, androgen receptor (AR) (Homo sapiens, UniProt P10275); test: Test 1: androgen receptor transcriptional activation (2XIDR17-luciferase) assay in transfected C2C12 cells; type: cell-based; details: for % Biological activity (C2C12 cell) 100 nM / % Biological activity (C2C12 cell) 5 μM: C2C12 cells, relative to 1 μM DHT; for % Biological activity (C2C12 cell) 100 nM: compound at 100 nM; for % Biological activity (C2C12 cell) 5 μM: compound at 5 μM; for Emax: C2C12, C2C12 cells, percentage activity relative to 1 μM DHT, read-out: Biological activity (C2C12 cell) Emax % (converted); for EC50: mouse myoblastic C2C12 cells transfected with full-length AR and 2XIDR17-luciferase, read-out: Biological activity (C2C12 cell) EC50
T1 construct: transfecting C2C12 cells with a plasmid containing full-length AR; expressed in transfected cells; host or cells: mouse myoblastic C2C12 cells (ATCC CRL-1772), transiently transfected with AR-FL in pcDNA 3.1(+)
T1 sequence (P10275 1-920): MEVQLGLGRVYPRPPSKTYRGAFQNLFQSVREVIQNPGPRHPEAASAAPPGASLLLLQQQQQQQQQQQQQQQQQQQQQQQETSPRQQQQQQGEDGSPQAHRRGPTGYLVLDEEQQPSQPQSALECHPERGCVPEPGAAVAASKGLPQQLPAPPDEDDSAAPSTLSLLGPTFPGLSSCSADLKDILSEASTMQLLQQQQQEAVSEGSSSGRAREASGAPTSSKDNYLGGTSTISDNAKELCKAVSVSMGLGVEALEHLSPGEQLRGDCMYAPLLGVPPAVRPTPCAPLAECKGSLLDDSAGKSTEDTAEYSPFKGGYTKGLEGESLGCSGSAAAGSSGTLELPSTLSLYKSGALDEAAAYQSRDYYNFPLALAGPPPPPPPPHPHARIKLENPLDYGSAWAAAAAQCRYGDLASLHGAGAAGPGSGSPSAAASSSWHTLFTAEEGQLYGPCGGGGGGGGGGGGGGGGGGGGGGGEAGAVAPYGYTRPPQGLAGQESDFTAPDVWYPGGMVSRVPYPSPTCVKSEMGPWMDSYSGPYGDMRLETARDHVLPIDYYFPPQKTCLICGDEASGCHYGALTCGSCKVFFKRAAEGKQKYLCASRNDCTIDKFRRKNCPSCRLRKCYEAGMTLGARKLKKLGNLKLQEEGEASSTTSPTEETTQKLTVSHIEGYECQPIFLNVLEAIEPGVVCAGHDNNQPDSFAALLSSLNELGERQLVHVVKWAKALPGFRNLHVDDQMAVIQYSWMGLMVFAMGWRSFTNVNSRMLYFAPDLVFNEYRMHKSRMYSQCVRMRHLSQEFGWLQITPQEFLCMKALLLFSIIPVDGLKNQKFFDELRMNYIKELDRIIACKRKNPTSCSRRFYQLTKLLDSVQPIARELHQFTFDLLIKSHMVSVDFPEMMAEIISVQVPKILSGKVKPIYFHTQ
Procedure: A suitable assay to determine the ability of a ligand to transcriptionally activate androgen receptor (AR) is carried out using mouse myoblastic C2C12 cells. The assay involves transfecting C2C12 cells with a plasmid containing full-length AR along with an AR response element linked to luciferase (2XIDR17). The luminescence read-out at the end of the assay is measured using Victor 3 and is a direct measure of the transcriptional activity. The assay has been validated using the reference compound, BMS-564929, for which EC50 values have been reported in a similar set-up.
C2C12 cells were obtained from ATCC (Cat #CRL-1772) and maintained in DMEM modified to contain 4 mM L-glutamine, 4.5 g/L glucose, 1 mM sodium pyruvate and 1.5 g/L sodium bicarbonate and 10% FBS.
AR-FL in pcDNA 3.1(+) and 2XIDR17 in pGL4.26 plasmids prepared using Genelute plasmid miniprep kit from Sigma Cat #PLED35 Steadyglow Luciferase assay system Promega Cat #E2550
• C2C12 cells were seeded in a 96-well plate in DMEM (Dulbecco's Modified Eagle Medium) without phenol red and containing 10% CS-FBS (Charcoal-stripped Fetal Bovine Serum) at 8000 cells/well. • The next day, cells were transfected with an equimolar ratio of (Androgen Receptor-Full length) AR-FL and 2XIDR17-Luciferase at a total plasmid concentration of 200 ng/well using Lipofectamine 2000 following manufacturer's protocol. • For the transfection, 83 ng of AR-FL and 117 ng of 2XIDR17-Luciferase were in 12.5 μl of OptiMEM—Mix A. 0.4 μl of Lipofectamine 2000 was added to 12.5 μl of OptiMEM and incubated for 5 min at room temperature—Mix B. The two mixes A and B were mixed and incubated at room temperature for an additional fifteen minutes. An additional 50 μl of OptiMEM was added, gently mixed and this mixture was added to the cells in the 96-well plate. The above quantities are requirements per well of a 96-well plate. Master mixes were made for the entire plate, with proportional quantity of reagents being used. • 5 h after transfection, compounds were added to the wells in DMEM without phenol red and containing 10% CS-FBS, maintaining a final DMSO concentration of 0.5%. A typical dose response curve starts at 10 μM and includes a 7-point, log dilution, done in triplicates. • After overnight incubation with the compounds, 100 ul of working solution of Steadyglow reagent was added to the wells. • The plates were placed in a shaker for 15 min at the end of which the lysate containing luciferase was transferred to a white flat-bottom plate and read under a luminescence setting in Victor. • Background subtracted counts (Luminescence from DMSO control wells is considered the background) are used to calculate percentage activity, expressed relative to activity with 1 μM (Dihydrotestosterone) DHT (at least two sets of triplicates for 1 μM DHT are included per plate).
The EC50 curves for the compounds for 8 compound concentrations were fitted by the respective function using non-linear least-squares regression in Graphpad Prism 4.0 (Graphpad Software, San Diego, Calif., USA).

| Structure (SMILES) | % Biological activity (C2C12 cell) 100 nM (androgen receptor (AR)) [%] | % Biological activity (C2C12 cell) 5 μM (androgen receptor (AR)) [%] | melting point [°C] | Emax (androgen receptor (AR)) [%] | EC50 (androgen receptor (AR)) [µM] |
| --- | --- | --- | --- | --- | --- |
| Cc1c(N2C(=O)N(CC3CCOC3)C3(CCCC3)C2=O)ccc(C#N)c1Cl (stereo not drawn) [Example 11.0, 2-chloro-4-(2,4-dioxo-1-((tetrahydrofuran-3-yl)methyl)-1,3-diazaspiro[4.4]nonan-3-yl)-3-methylbenzonitrile] | 25 | 48 | 70 |  |  |
| Cc1c(N2C(=O)N(C)C3(CCC3)C2=O)ccc(C#N)c1Cl [Example 12.0, 2-chloro-3-methyl-4-(5-methyl-6,8-dioxo-5,7-diazaspiro[3.4]octan-7-yl)benzonitrile] | 67 | 70 | 133 |  |  |
| Cc1c(N2C(=O)N(C)C3(CCC(=O)C3)C2=O)ccc(C#N)c1Cl (stereo not drawn) [Example 6.2, 2-chloro-3-methyl-4-(1-methyl-2,4,7-trioxo-1,3-diazaspiro[4.4]nonan-3-yl)benzonitrile] | 9 | 29 | 219 |  |  |
| Cc1c(N2C(=O)N(C)C3(CCCC3CO)C2=O)ccc(C#N)c1Cl (stereo not drawn) [Example 1.6, 2-chloro-4-(6-(hydroxymethyl)-1-methyl-2,4-dioxo-1,3-diazaspiro[4.4]nonan-3-yl)-3-methylbenzonitrile] | 28 | 75 | 157 |  |  |
| Cc1c(N2C(=O)N(C)C3(CCCC3=O)C2=O)ccc(C#N)c1Cl (racemic) [Example 1.1, 2-chloro-3-methyl-4-(1-methyl-2,4,6-trioxo-1,3-diazaspiro[4.4]nonan-3-yl)benzonitrile] |  |  | 161 | 60 | 0.847 |
| Cc1c(N2C(=O)N(C)C3(CCC(F)(F)C3)C2=O)ccc(C#N)c1Cl (stereo not drawn) [Example 6.3, 2-chloro-4-(7,7-difluoro-1-methyl-2,4-dioxo-1,3-diazaspiro[4.4]nonan-3-yl)-3-methylbenzonitrile] |  |  | 184 | 63 | 0.0149 |
| Cc1noc(C)c1CN1C(=O)N(c2ccc(C#N)c(Cl)c2C)C(=O)C12CCCC2 [Example 8.3, 2-chloro-4-(1-((3,5-dimethylisoxazol-4-yl)methyl)-2,4-dioxo-1,3-diazaspiro[4.4]nonan-3-yl)-3-methylbenzonitrile] | 3 | 19 | 109 |  |  |
